Experiments:
[1] = test system: Reverse Passive Arthus Reaction in Rats; assay: Reverse Passive Arthus Reaction in Rats, myeloperoxidase (MPO); type: in vivo; settings: rat, IV, % inhibition at 3 mg single dose, 4 hours
From the text: 3. Reverse Passive Arthus Reaction in Rats
The reverse passive Arthus reaction in rats is a modification of the method by Mulligan et al., as described in J. Clin. Invest., (1991 ) 88:1396-1406. This is an experimental model in which the interaction of antigen-antibody complexes and complement leads to a severe vasculitis that is associated with edema, induration, erythema and hemorrhage. The interaction between the antigen-antibody complexes and complement leads to a localized influx of neutrophils. These neutrophils release a variety of mediators that are associated with tissue damage and vascular permeability. The localized inflammatory reaction is measured using different techniques i.e., vascular permeability and neutrophil influx which is evaluated both biochemically and microscopically.
Male Sprague Dawley specific pathogen-free rats with jugular vein cannulae (280-320 g, Hill Top Labs, Pa.) are used in these studies. Animals are acclimated for at least 1 day and individually housed in stainless steel cages. The dorsal region of the rats is closely clipped 2 days prior to the experiments and divided into 4 sites on each side of the midline. Prior to all injections the rats are sedated with 0.4 ml per 300 gm rat of ketamine/rompun [1000 mg (10 ml) of ketamine HCL is mixed with 40 mg (2.0 ml) Rompun] administered IP and or inhalation anesthesia with metafane (methoxyflurane).
Bovin Serum Albumin (BSA) and rabbit polyclonal IgG rich in anti-BSA are purchased from Sigma Chemical Co. (St. Louis, Mo.). Radiolabelled ^125 I-BSA (spAct 1-5 μCi/μg) is purchased from Dupont NEN (Boston, Mass.).
Each rat is administered intradermal (ID) injection of (0.4 mg, 0.6 mg and 0.8 mg) anti-BSA in a volume of 100 μl per injection in normal saline. The ID injections are randomized near the mid dorsal region on both sides of the back bone. Immediately after the ID injections of the anti-BSA, the rats are administered intravenous (IV) injections of BSA (10 mg in 1.0 ml) in normal saline containing ^125 I labeled BSA (1 μCi/ml BSA or 5.0 μCi/kg body wt) for quantification of dermal vascular injury. Anti-inflammatory agents such as inhibitors of adhesion molecules of the present invention are administered IV at a single dose of 3 mg immediately after BSA. Four (4) hours after the IV injection of BSA, the rats are anesthetized with metafane and 2 to 3 ml of blood is withdrawn via the cannula into an anticoagulant containing (EDTA or Heparin) tube and plasma separated and saved for neutrophil and albumin quantitation. The rats are killed and the skin surrounding the injection site (15 mm diameter) is punched out and weighed. The skin samples and a fixed volume of plasma (0.1 to 1.0 ml) is analyzed in a gamma-counter for ^125 I content. Skin samples from the contralateral side are processed and analyzed for myeloperoxidase activity (MPO) as a measure of neutrophil accumulation. As needed, samples are also processed for histological evaluation of the reacted sites.
MPO is located in the azurephil granules of polymorphonuclear leukocytes (PMN). Because of its abundance in these cells (5% dry weight), this enzyme is used as a marker for tissue neutrophil content. For tissue MPO content, the method of Bradley, et al., was used as described in J. Invest. […] Change in absorbance at 450 nm was measured at room temperature using a Vmax kinetic plate reader (Molecular Devices, Pale Alto, Calif., USA). Percent inhibition of the test compound at 3 mg dose was determined as follows: [formula] […]

P-selectin = biological target: T1, P-selectin (Homo sapiens, UniProt P16109); assay: HL-60 Cell Binding to P-selectin Rg; type: cell-based; settings: HL-60 cells binding to P-selectin Rg coated wells
T1 construct: consists of the human lectin domain, the EGF domain, and two complement repeats of the human selectins; made in house
Experimental: 2. HL-60 Cell Binding to P- and E-Selectin RG
Receptor globulin (Rg) Construction
The chimeric P-and E-selectin receptor globulin (Rg) consists of the human lectin domain, the EGF domain, and two complement repeats of the human selectins fused to the hinge, CH1 and CH2 domains of human IgG1. These proteins were prepared as described by Aruffo, et al., Cell (1991) 67: 35-44; Walz, et al., Science (1990) 250, 1132-1135.
Cell binding assay for Rg
The HL-60 cell line, obtained from the American Type Culture Collection, ATCC No. CCL240, was employed to investigate P-selectin Rg binding. Assays were done in 96-well tissue culture dishes. The wells were first coated with 0.5 ug goat anti-human Fc antiserum overnight, and nonspecific binding sites were blocked by incubation of the wells with 1% nonfat dry milk in phosphate buffered saline (PBS containing 0.9 mM CaCl2 and 0.8 mM MgSO4) for 30 minutes. The Rg was then bound to the anti Fc-coated wells by incubating 50 ng in 50 ul of PBS for two hours. Cells, washed twice and resuspended in PBS to remove traces of medium components, were labeled with 10 uM calcein acetoxy methyl ester for 30 minutes at 3×10^7 cells per ml at room temperature. Serum-containing medium (RPMI with 20% fetal calf serum) was added, and the cells washed, followed by resuspension in PBS and a further spin. The labeled cells, resuspended in PBS, were added to twice washed Rg-containing wells at 200,000 per well. Following a 30 minute incubation with slow shaking, the wells were aspirated and washed three times with PBS to remove unbound cells. To certain wells were added known numbers of cells for determination of a standard curve of fluorescent units per cell. The fluorescence on the plate was quantitated using a fluorescent plate reader. Following subtraction of a blank representing the binding of cells to non-Rg containing wells (<5000 cells), the specific binding to P- or E- selectin was determined.
Inhibitors of cell binding
Test compounds were prepared by dissolution to a final concentration of 20 mg/ml in dimethyl sulfoxide (DMSO), diluted in PBS to 2 mg/ml, and briefly sonicated prior to use. The Rg coated wells were preincubated at room temperature for 15 minutes with the inhibitor, and 200,000 cells were added to yield the final indicated inhibitor concentration in 160 ul of PBS. The data is obtained as percent inhibition of specific binding: [formula] and a plot of dose vs. percent inhibition of Rg binding is generated in which IC50 (μM) is calculated and reported in Table 1.

T1 sequence (P16109 with tags, fused parts or gaps limits assumed): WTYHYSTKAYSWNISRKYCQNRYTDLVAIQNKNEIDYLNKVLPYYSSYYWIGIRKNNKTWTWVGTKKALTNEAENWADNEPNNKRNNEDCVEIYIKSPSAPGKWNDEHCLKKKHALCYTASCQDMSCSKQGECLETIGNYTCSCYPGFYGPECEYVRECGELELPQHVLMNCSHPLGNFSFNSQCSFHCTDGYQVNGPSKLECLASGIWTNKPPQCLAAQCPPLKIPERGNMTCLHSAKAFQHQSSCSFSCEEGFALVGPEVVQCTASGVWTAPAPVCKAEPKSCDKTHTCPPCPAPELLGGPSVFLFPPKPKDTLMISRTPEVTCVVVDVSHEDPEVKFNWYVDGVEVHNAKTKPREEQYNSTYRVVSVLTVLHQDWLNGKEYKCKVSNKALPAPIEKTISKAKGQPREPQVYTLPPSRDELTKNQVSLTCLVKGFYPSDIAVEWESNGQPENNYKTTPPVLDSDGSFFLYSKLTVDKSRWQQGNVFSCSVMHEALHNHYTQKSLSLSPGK

IC50 (P-selectin) | Compound | RPA MPO % Inhib. [1]
11 µM | CCCCCCCC/C=C\CCCCCCCCCCCCCC(=O)N[C@@H](CO[C@@H]1O[C@H](COS(=O)(=O)O)[C@H](OC(=O)c2ccccc2)[C@H](OC(=O)c2ccccc2)[C@H]1OS(=O)(=O)O)[C@@H](/C=C/CCCCCCCCCCCCC)OC(=O)c1ccccc1 [Example 7, (2S,3R,4E)-3-Benzoyloxy-1-[3,4-di-O-benzoyl-2,6-di-O-(sodiumoxysulfonyl)-β-D-galactopyranosyloxy]-2-(cis-15-tetracosenoylamino)-4-octadecene] | 46%
39 µM | CCCCCCCCCCCCC/C=C/[C@@H](O)[C@H](CO[C@@H]1O[C@H](COS(=O)(=O)O)[C@H](OS(=O)(=O)O)[C@H](O)[C@H]1O)NC(=O)CCCCCCCCCCCCCCC [Example 2, (2S,3R,4E)-3-Hydroxy-2-hexadecanoylamino-1-[4,6-di-O-(sodiumoxysulfonyl)-β-D-galactopyranosyloxy]-4-octadecene] | 33.5%

Reference: US5565433A, “Sulfated β-glycolipid derivatives as cell adhesion inhibitors” (Bristol-Myers Squibb Company, priority 1996, dated 1996)
